Where two headings read alike, the source gives them in different places.
Assays:
[1] = test system: Debaromyces hansenii
Procedure: Absorbance at 600 nm was measured after 7 days of incubation at 17° C., compared to reference. Samples made in triplicate.
Two concentrations of manganese were used, 6 ppm and 0.6 ppm, in example 8.

[2] = test system: Debaryomyces hansenii; assay: Yeast growth in yogurt with EDTA or scavenger (Example 9); assay type: cell-based; conditions: added to reference yogurt; FIG. 14
Procedure: The concentration of EDTA ranges from 14 mg/ml (top row), 7.10 mg/ml, 3.55 mg/ml, 1.78 mg/ml, 0.89 mg/ml, 0.44 mg/ml, 0.22 mg/ml to 0 mg/ml (bottom row).

[3] = test system: Cryptococcus fragicola; assay: Yeast agar-assay on fermented milk plates (Example 6); assay type: cell-based; conditions: added manganese on fermented milk agar plates
Procedure: Influence of manganese on the inhibitory effect against different molds were evaluated. An agar-assay resembling the manufacturing process and production of fermented milk products was used. L. rhamnosus and L. paracasei were used together as manganese scavenging agents. Reduced-fat (1.5% w/v) homogenized milk was heat-treated at 90±1° C. for 20 min and cooled immediately. A commercial starter culture (Streptococcus thermophilus and Lactobacillus delbrueckii subsp. bulgaricus) was inoculated at 0.02% (v/w) in 3 L buckets. […] The fermented milk products were divided into 200 mL bottles and cooled down. […] All the fermented milk samples were warmed to a temperature of 40° C. and added 40 ml of a 5% sterile agar solution that had been melted and cooled down to 60° C. This solution of fermented milk and agar was then poured into sterile Petri dishes and the plates were dried in a LAF bench for 30 min. Three target contaminants, including two Debaryomyces hansenii (strain 1 and strain 2) and one Cryptococcus fragicola were spotted in concentrations of 10^3, 10^2 and 10^1 CFU/spot. Plates were incubated at 7±1° C. and regularly examined for the growth of yeast.

[4] = test system: Debaryomyces hansenii; conditions: chemically defined medium, pH 6.5 or 4.5; 6 days at 17° C.; FIGS. 1 and 2
Procedure: Two D. hansenii isolated from spoiled yogurt (strain 1) and quark (strain 2), respectively, were used.
The minimal medium contains biotin 2 μg/L, calcium pantothenate 400 μg/L, folic acid 2 μg/L, inositol 2 mg/L, nicotinic acid 400 μg/L, p-amino benzoic acid 200 μg/L, pyridoxine 400 μg/L, riboflavin 200 μg/L, thiamine 400 μg/L, Boric acid 500 μg/L, copper sulfate 40 μg/L, potassium iodide 100 μg/L, ferric chloride 200 μg/L, sodium molybdate 200 μg/L, zinc sulfate 400 μg/L, potassium phosphate monobasic 0.5 g/L, potassium phosphate dibasic 0.5 g/L, magnesium sulfate 0.5 g/L, sodium chloride 0.1 g/L, calcium chloride 0.2 g/L, glucose 20 g/L, ammonium sulfate 5 g/L.
Two different pH were tested: pH 6.5 and 4.5.
The strains were inoculated to 150 μl of the different medium in a 96 well plate. The plates were incubated at 17° C. for several days and the growth of the yeast strains was followed by measuring absorbance at 600 nm in a plate reader.

## O=C(O)CN(CCN(CC(=O)O)CC(=O)O)CC(=O)O [EDTA, ethylenediaminetetraacetic acid]
[1]; FIG. 12, aqueous phase filtered with 1.2 μm filter, 7 days at 17° C.
  concentration at which cells stop growing (inhibitory effect): 0.05 mg/mL
[1]; FIG. 13, 0.05 mg/ml EDTA + 0.6 ppm manganese
  effect on growth of adding 0.6 ppm of manganese together with 0.05 mg/ml EDTA: restores the growth
[1]; FIG. 13, aqueous phase filtered with 0.2 μm filter, absence of manganese (0.6 ppm)
  concentration at which cells stop growing (inhibitory effect): 0.05 mg/mL
[2]
  concentration reproducing the inhibition of manganese scavenging agent 1: up to 0.89 mg/ml

## [Mn+2] [manganese]
[3]
  Manganese concentration that seemed to inhibit the growth: 6 ppm
[1]; Example 8
  manganese concentration with inhibitory/toxic effect on yeast growth: 6 ppm
[4]
  manganese concentration below which growth is inhibited: < 0.01 ppm
